Measured values: paper PMC10272835, “Exploration of T cell immune responses by expression of a dominant-negative SHP1 and SHP2” (Frontiers in Immunology, 2023)

Assays:
SHP2 protein = test: Western blot of SHP2 after gene disruption; format: cell-based; details: after 6 days, 4 donors
Method: (§1) Expression of the SHP2 (PTPN11) gene was disrupted by Cas9-mediated indel formation. For each sgRNA, 2 samples of 5x10^6 PBMCs were nucleofected in […] of P3 buffer (Lonza; V4XP-3024) with 125 pmol of Alt-R Sp HiFi Cas 9 nuclease v3 (IDT; 108210621) complexed with 187.5 pmol of the PTPN11 sgRNA ([…]) or a non-targeting sgRNA ([…]; Synthego) using pulse code EH-115. Complexing of Cas9 and the sgRNA was carried out at ambient temperature for 10 minutes prior to nucleofection. […] PBMCs were transduced with retroviral constructs 24 hours after nucleofection. PBMCs were collected for genotyping, Western blotting and functional assessment 6 days after nucleofection.
Cells were stimulated as indicated then 0.5x10^6 cells were harvested and pelleted at 400xg for 2 minutes. The pellets were washed with ice-cold PBS, centrifuged as before and lysed in 50μl of 1x RIPA buffer (Millipore) supplemented with 1x protease and phosphatase inhibitor (Abcam). The cells were incubated on ice for 15 minutes, vortexed and incubated for further 15 minutes. The lysate was clarified by centrifuging the cells at 13000xg for 10 minutes at 4°C, protein concentration was determined using the BCA Protein assay Kit (Pierce) and stored at -80°C until use. Prior to gel electrophoresis lysates were mixed with NuPAGE™ LDS Sample Buffer (4X) (Invitrogen™) and heated at 95°C for 10 minutes. […]

SHP2 (PTPN11) gene = test: SHP2 gene disruption (ICE); format: cell-based; details: Cas9 RNP nucleofection of T cells, after 6 days; 4 donors
Method: as §1
Genomic DNA was extracted from PBMCs using the GenElute Blood Genomic DNA Kit (Sigma; NA2010) according to the manufacturer’s instructions. The sequence flanking the SHP2 sgRNA target site was amplified by PCR from 100 ng of genomic DNA using Q5 DNA polymerase (NEB; M0491L) and the primers, SHP2_forward 5’-[…]-3’ and SHP2_reverse 5’-[…]-3’ (IDT). The PCR products were Sanger sequenced (Source Bioscience) and indel formation and knockout efficiencies determined by ICE (Synthego), comparing SHP2-edited and non-target-edited sequences to an unedited control.

SupT1-GD2-PDL1 cells [1] = test: CAR T cytotoxicity, dSHP2 versus SHP2 knock-out; format: cell-based; details: GD2 CAR alongside PD1
Method: (§2) Transduced T cells were depleted of CD56 cells using the EasySep Human CD56 positive selection kit (Stemcell Technologies; 17855) and rested for 24 hours. Transduced cells were co-cultured with target cells at the indicated effector: target (E:T) ratios with target cells remaining constant at the indicated number of target cells/co-culture. At the end of the co-culture period target cells were enumerated by flow cytometry and cytotoxicity calculated as a percentage of the number of target cells recovered from co-cultures with non-transduced (NT) T cells.
as §1
Supplementary Figure 5: Comparison of dSHP2 expression with genomic excision of SHP2. […]

[2] = system: Skov3-GD2, H446, CHLA255 cells; test: Target cell killing after IFNγ treatment; format: cell-based; details: 100ng/ml IFNγ 24 hours; E:T 1:1, 48 hours (Skov3-GD2) or 96 hours (H446, CHLA255)
Method: (§3) SupT1 Nalm6 Raji Skov3 CHLA H446
(§4) Supplementary Figure 4: Effect of endogenous PDL1: A) Tumor cell lines were treated with […]
(§5) for PDL1 expression. B-D) The indicated tumor cell lines were treated with 100ng/ml IFNγ for 24 hours or left untreated following which 2x10^5 tumor cells were co-cultured with the indicated CAR T cells at an effector:target ratio of 1:1 for 48 hours (Skov3-GD2) or 96 hours (H446, CHLA255) and tumor cell killing assessed by flow cytometry and normalised to respective co-cultures with non-transduced (NT) T cells (100%). Points represent individual […]

[3] = system: tumor cell lines (SupT1, Nalm6, Raji, Skov3, CHLA, H446); test: Upregulation of endogenous PDL1 by IFNγ; format: cell-based; details: IFNγ 10-400 ng/ml, 24 hours; flow cytometry
Method: In order to assess the effect of upregulation of endogenous PDL1 on tumour cells, cell lines were incubated for 24 hours with increasing amounts of IFNγ (10, 20, 40, 60, 80, 100, 200, 400 ng/ml) and PDL1 levels were assessed by flow cytometry.
as §3, §4, §5

[4] = system: CAR T cells with SupT1-GD2-PDL1 target cells; test: CAR T proliferation, dSHP2 versus Pembrolizumab; format: cell-based; details: Pembrolizumab 2.5, 5, 10 µg/mL, E:T 1:4, 5 days
Method: PBMCs were labelled with Cell Trace Violet (CTV) according to manufacturer’s instructions (ThermoFisher Scientific; C34557) and cultured with 0.5x10^5 target cells at 1:1 E:T ratio for 96 hours. Numbers of CD3^+ RQR8+ T cells and CTV MFI were assessed by flow cytometry.
(§6) Supplementary Figure 6: Comparison of dSHP2 with Pembrolizumab. A) T cells expressing RQR8 and the GD2 CAR alone or in combination with PD1 and/or dSHP2 were incubated with 1x10^5 SupT1 cells lacking antigen expression (SupT1-NT) or engineered to express GD2 alone (SupT1-GD2) or in the presence of PDL1 (SupT1-GD2-PDL1) at an effector:target ratio of 1:8 for 72 hours. Pembrolizumab was included in co-cultures with T cells expressing PD1 and the GD2 CAR at the indicated concentrations. Surviving target cells were enumerated and normalized to the respective co-cultures with non-transduced T cells (100%). B) Supernatants from co-cultures in (A) were analyzed for IFNγ by ELISA. C-D) T cells were labelled with Cell Trace Violet and co-cultured with 2x10^5 SupT1 target cells at an E:T ratio of 1:4 for 5 days and CAR T cells enumerated. Bars represent the mean of 3-6 biologically independent replicates. […]

[5] = system: SupT1-GD2-PDL1 target cells; test: IFNγ release, dSHP2 versus Pembrolizumab; format: cell-based; details: GD2 CAR; Pembrolizumab 2.5, 5, 10 µg/mL; E:T 1:8, 72 hours
Method: as §6

SupT1-GD2-PDL1 cells [6] = test: CAR T cytotoxicity, dSHP2 versus Pembrolizumab; format: cell-based; details: Pembrolizumab 2.5, 5, 10 µg/mL, E:T 1:8, 72 hours, 3-6 replicates
Method: as §2
as §6, with “enumerated.” for “enumerated. Bars represent the mean of 3-6 biologically independent replicates.”

SHP2 = system: SHP2; set-up: method as in PMID 30972278; details: following activation; ref [29]; cited from earlier work
SupT1-GD2 cells = test: Effect of inhibitory ligand expression on GD2 CAR cytotoxicity; format: cell-based; details: ligand expressed on SupT1-GD2, E:T 1:4 and 1:8, 6 days
Method: as §2
Figure 3 Interaction of dSHP2 with immunoinhibitory T cell receptors. (A-E) Binding of dSHP2 to phosphorylated peptides derived from the endodomains of immunoinhibitory T cell receptors. Plates were coated with phosphorylated or non-phosphorylated peptide at the indicated concentration and the purified, His-tagged SH2 domains of dSHP2 were allowed to bind overnight. Binding was measured through detection of the His tag. (F) Effect of inhibitory ligand expression on target cells on CAR T cytotoxicity. […] Supernatants were harvested from these co-cultures and levels of IFNγ measured by ELISA (I). […] Statistical significance was measured by two-way ANOVA. […]

SHP2-directed sgRNA: PTPN11 sgRNA (GAGACUUCACACUUUCCGUU) complexed with Cas9 nuclease (complexed with Cas9 nuclease, further chemistry not given here)
SHP2 protein level (SHP2 protein): significant decrease in SHP2 protein | indel formation (SHP2 (PTPN11) gene): greater than 80% | relief of PDL1-mediated inhibition of CAR T cells (SupT1-GD2-PDL1 cells [1]): substantially less

IFNγ: exogenous IFNγ used to upregulate PDL1 on tumor cell lines
target cell killing with exogenous IFNγ [2]: increased target cell killing | PDL1 upregulation [3]: did upregulate PDL1 in some cell lines

pembrolizumab: antibody blocking PD1
restoration of proliferation, compared with Pembrolizumab [4]: comparable effects | restoration of IFNγ release, compared with Pembrolizumab [5]: slightly greater restoration of IFNγ secretion at the highest concentration | restoration of killing, compared with Pembrolizumab (SupT1-GD2-PDL1 cells [6]): comparable effects

CC1(N)CCN(c2cnc(-c3cccc(Cl)c3Cl)c(N)n2)CC1 [SHP099]
effect on central memory population, effector molecule expression (SHP2): increased central memory population and increased expression of granzyme B, perforin, IFNγ, TNFα and FasL | effect on proliferation or viability (SHP2): no effect on proliferation or viability

CD80: inhibitory ligand of CTLA4 expressed on SupT1-GD2 cells
effect of target cell ligand expression on CAR T cytotoxicity (SupT1-GD2 cells): mild enhancement of CAR T cytotoxicity
